# From US9650395B2, “Antibacterial compounds and methods for use” (PTC Therapeutics, Inc., priority 2011, dated 2017)
# Where two headings read alike, the source gives them in different places.
# Tests used:
# [1] = system: control Gram-negative E. coli 25922 strain; assay: Antibacterial activity, microbroth dilution MIC, E. coli 25922; type: cell-based, Escherichia coli; conditions: Escherichia coli; E. coli 25922, microbroth dilution; read-out: MIC, 25922
# [2] = system: Gram-positive Staphylococcus aureus (S. aureus) 29213; assay: Antibacterial activity, microbroth dilution MIC, S. aureus 29213; type: cell-based; conditions: Staphylococcus aureus; S. aureus 29213, microbroth dilution; read-out: MIC, 29213
# [3] = system: quinolone resistant E. coli LZ3111; assay: Antibacterial activity, MIC, quinolone resistant E. coli LZ3111; type: cell-based, Escherichia coli; conditions: Escherichia coli, read-out: MIC, LZ3111
# Text: The antibacterial activity from a microbroth dilution method may be presented as the minimum inhibitory concentration (MIC in […]). The MIC value is the lowest concentration of a drug which prevents macroscopically visible bacterial growth under test conditions.
# Mutations in these regions are known to confer a high level resistance to the quinolone class of antibiotics.
# [4] = system: super sensitive Gram-negative Escherichia coli (E. coli) BAS849; assay: Antibacterial activity, microbroth dilution MIC, E. coli BAS849; type: cell-based; conditions: Escherichia coli, read-out: MIC, BAS849
# [5] = E. coli BAS849, microbroth dilution
SMILES,MIC [1] [µg/mL],MIC [2] [µg/mL],MIC [3] [µg/mL],"MIC [4, 5] [µg/mL]",MIC [4] [µg/mL]
"CCc1c(-c2ccc(N3C[C@H](CN(Cc4ccccc4)Cc4ccccc4)[C@@H](C)C3)cc2)[nH]c(=O)c(C(=O)O)c1O [Cpd 249, 6-(4-{(3S,4R)-3-[(dibenzylamino)methyl]-4-methylpyrrolidin-1-yl}phenyl)-5-ethyl-4-hydroxy-2-oxo-1,2-dihydropyridine-3-carboxylic acid]",12.5 to 150,12.5 to 150,12.5 to 150,12.5 to 150,
"CCc1c(-c2ccc(N3C[C@H]4C[C@@H](NCc5ccccc5)C[C@H]4C3)cc2)[nH]c(=O)c(C(=O)O)c1O [Cpd 250, 6-{4-[(3aR,5r,6aS)-5-(benzylamino)hexahydrocyclopenta[c]pyrrol-2(1H)-yl]phenyl}-5-ethyl-4-hydroxy-2-oxo-1,2-dihydropyridine-3-carboxylic acid]",12.5 to 150,12.5 to 150,12.5 to 150,3.5 to 12.5,
"CCc1c(-c2ccc(N3C[C@H]4C[C@@H](N(Cc5ccccc5)Cc5ccccc5)C[C@H]4C3)cc2)[nH]c(=O)c(C(=O)O)c1O [Cpd 251, 6-{4-[(3aR,5r,6aS)-5-(dibenzylamino)hexahydrocyclopenta[c]pyrrol-2(1H)-yl]phenyl}-5-ethyl-4-hydroxy-2-oxo-1,2-dihydropyridine-3-carboxylic acid]",12.5 to 150,12.5 to 150,12.5 to 150,12.5 to 150,
"CCc1c(-c2ccc(N3CC4CCCN(C(=O)OC(C)(C)C)C4C3)cc2)[nH]c(=O)c(C(=O)O)c1O (stereo not shown) [Cpd 253, 6-{4-[1-(tert-butoxycarbonyl)octahydro-6H-pyrrolo[3,4-b]pyridin-6-yl]phenyl}-5-ethyl-4-hydroxy-2-oxo-1,2-dihydropyridine-3-carboxylic acid]",12.5 to 150,3.5 to 12.5,12.5 to 150,< 1,
"CCc1c(-c2ccc(N3CCC(CN(C)Cc4ccccc4)C3)cc2)[nH]c(=O)c(C(=O)O)c1O (stereo not shown) [Cpd 255, 6-[4-(3-{[benzyl(methyl)amino]methyl}pyrrolidin-1-yl)phenyl]-5-ethyl-4-hydroxy-2-oxo-1,2-dihydropyridine-3-carboxylic acid]",12.5 to 150,3.5 to 12.5,12.5 to 150,3.5 to 12.5,
"CCc1c(-c2ccc(N3C[C@H]4CNC[C@H]4C3)cc2)[nH]c(=O)c(C(=O)O)c1O.Cl [Cpd 274, 5-ethyl-6-{4-[(3aR,6aS)-hexahydropyrrolo[3,4-c]pyrrol-2(1H)-yl]phenyl}-4-hydroxy-2-oxo-1,2-dihydropyridine-3-carboxylic acid hydrochloride]",12.5 to 150,12.5 to 150,12.5 to 150,1 to 3.5,
"CCc1c(-c2ccc(N3CCC4(CCNCC4)C3)cc2)[nH]c(=O)c(C(=O)O)c1O.Cl [Cpd 278, 6-[4-(2,8-diazaspiro[4.5]dec-2-yl)phenyl]-5-ethyl-4-hydroxy-2-oxo-1,2-dihydropyridine-3-carboxylic acid hydrochloride]",3.5 to 12.5,3.5 to 12.5,12.5 to 150,< 1,
"CCc1c(-c2ccc(N3CCC(O)CC3)cc2)[nH]c(=O)c(C(=O)O)c1O [Cpd 280, 5-ethyl-4-hydroxy-6-[4-(4-hydroxypiperidin-1-yl)phenyl]-2-oxo-1,2-dihydropyridine-3-carboxylic acid]",12.5 to 150,12.5 to 150,12.5 to 150,< 1,
"CCc1c(-c2ccc(N3CCC(OCc4ccccc4)CC3)cc2)[nH]c(=O)c(C(=O)O)c1O [Cpd 281, 6-{4-[4-(benzyloxy)piperidin-1-yl]phenyl}-5-ethyl-4-hydroxy-2-oxo-1,2-dihydropyridine-3-carboxylic acid]",12.5 to 150,12.5 to 150,12.5 to 150,3.5 to 12.5,
"CCc1c(-c2ccc(N3CCC(OC)CC3)cc2)[nH]c(=O)c(C(=O)O)c1O [Cpd 282, 5-ethyl-4-hydroxy-6-[4-(4-methoxypiperidin-1-yl)phenyl]-2-oxo-1,2-dihydropyridine-3-carboxylic acid]",12.5 to 150,12.5 to 150,12.5 to 150,< 1,
"CCc1c(-c2ccc(N3CCC(N(Cc4ccccc4)Cc4ccccc4)CC3)cc2)[nH]c(=O)c(C(=O)O)c1O [Cpd 283, 6-{4-[4-(dibenzylamino)piperidin-1-yl]phenyl}-5-ethyl-4-hydroxy-2-oxo-1,2-dihydropyridine-3-carboxylic acid]",12.5 to 150,12.5 to 150,12.5 to 150,3.5 to 12.5,
"CCc1c(-c2ccc(N3CCC(N)CC3)cc2)[nH]c(=O)c(C(=O)O)c1O [Cpd 284, 6-[4-(4-aminopiperidin-1-yl)phenyl]-5-ethyl-4-hydroxy-2-oxo-1,2-dihydropyridine-3-carboxylic acid]",12.5 to 150,12.5 to 150,12.5 to 150,3.5 to 12.5,
"CCc1c(-c2ccc(N3CCC(n4ccnn4)C3)cc2)[nH]c(=O)c(C(=O)O)c1O (stereo not shown) [Cpd 287, 5-ethyl-4-hydroxy-2-oxo-6-{4-[3-(1H-1,2,3-triazol-1-yl)pyrrolidin-1-yl]phenyl}-1,2-dihydropyridine-3-carboxylic acid]",1 to 3.5,3.5 to 12.5,12.5 to 150,< 1,
"CCc1c(-c2ccc(N3CCC(C)(O)C3)cc2)[nH]c(=O)c(C(=O)O)c1O (stereo not shown) [Cpd 289, 5-ethyl-4-hydroxy-6-[4-(3-hydroxy-3-methylpyrrolidin-1-yl)phenyl]-2-oxo-1,2-dihydropyridine-3-carboxylic acid]",1 to 3.5,1 to 3.5,12.5 to 150,< 1,
"CCc1c(-c2ccc(N3CCC(N(C)C)C3)cc2F)[nH]c(=O)c(C(=O)O)c1O (stereo not shown) [Cpd 291, 6-{4-[3-(dimethylamino)pyrrolidin-1-yl]-2-fluorophenyl}-5-ethyl-4-hydroxy-2-oxo-1,2-dihydropyridine-3-carboxylic acid]",3.5 to 12.5,12.5 to 150,12.5 to 150,1 to 3.5,
"CCc1c(-c2ccc(N3CC4CC3CN4C(=O)OC(C)(C)C)cc2)[nH]c(=O)c(C(=O)O)c1O (stereo not shown) [Cpd 294, 6-{4-[5-(tert-butoxycarbonyl)-2,5-diazabicyclo[2.2.1]hept-2-yl]phenyl}-5-ethyl-4-hydroxy-2-oxo-1,2-dihydropyridine-3-carboxylic acid]",12.5 to 150,1 to 3.5,12.5 to 150,,< 1
"CCc1c(-c2ccc(N3CC4CC3CN4)cc2)[nH]c(=O)c(C(=O)O)c1O.O=C(O)C(F)(F)F (stereo not shown) [Cpd 295, 6-[4-(2,5-diazabicyclo[2.2.1]hept-2-yl)phenyl]-5-ethyl-4-hydroxy-2-oxo-1,2-dihydropyridine-3-carboxylic acid trifluoroacetate]",12.5 to 150,12.5 to 150,12.5 to 150,,1 to 3.5
"CCc1c(-c2ccc(N3CC4=CCCC[C@@H]4C3)cc2)[nH]c(=O)c(C(=O)O)c1O.Cl [Cpd 297, 5-ethyl-6-{4-[(3aS)-1,3,3a,4,5,6-hexahydro-2H-isoindol-2-yl]phenyl}-4-hydroxy-2-oxo-1,2-dihydropyridine-3-carboxylic acid hydrochloride]",12.5 to 150,3.5 to 12.5,12.5 to 150,< 1,
"CCc1cc(C(=O)O)c(=O)[nH]c1-c1cc(CN2CCCC2)n(C)c1 [Cpd 348, 5-ethyl-6-(1-methyl-5-(pyrrolidin-1-ylmethyl)-1H-pyrrol-3-yl)-2-oxo-1,2-dihydropyridine-3-carboxylic acid]",12.5 to 150,12.5 to 150,12.5 to 150,3.5 to 12.5,
"CCc1cc(C(=O)O)c(=O)[nH]c1-c1cc(CN2CCCCC2)n(C)c1 [Cpd 349, 5-ethyl-6-(1-methyl-5-(piperidin-1-ylmethyl)-1H-pyrrol-3-yl)-2-oxo-1,2-dihydropyridine-3-carboxylic acid]",12.5 to 150,12.5 to 150,12.5 to 150,12.5 to 150,
"CCc1cc(C(=O)O)c(=O)[nH]c1-c1ccc(CN2CCCC2)n1C [Cpd 350, 5-ethyl-6-(1-methyl-5-(pyrrolidin-1-ylmethyl)-1H-pyrrol-2-yl)-2-oxo-1,2-dihydropyridine-3-carboxylic acid]",12.5 to 150,12.5 to 150,12.5 to 150,12.5 to 150,
"CCc1cc(C(=O)O)c(=O)[nH]c1-c1ccc(CN(C)C)n1C [Cpd 351, 6-(5-((dimethylamino)methyl)-1-methyl-1H-pyrrol-2-yl)-5-ethyl-2-oxo-1,2-dihydropyridine-3-carboxylic acid]",12.5 to 150,12.5 to 150,12.5 to 150,12.5 to 150,
